Measured values reported in paper PMC3270411 (Chemistry & biology, 2012).
Like-named read-outs stand apart in the source and are kept apart here.

Key:
ROCK1 = ROCK1 (Homo sapiens, UniProt Q13464); test: KiNativ cellular kinase profiling; assay type: cell-based; conditions: for inhibition at 1 µM: A-375, read-out: Percent inhibition of kinase labeling by ATP-biotin; for Percent inhibition of kinase labeling by ATP-biotin: A375 cells, 1 μM, 3 hours, ROCK1, labeling site Other
ROCK1,ROCK2 = test: KiNativ cellular kinase profiling; assay type: cell-based; conditions: A375 cells, 1 μM, 3 hours; ROCK1,ROCK2, labeling site Lys2
JNK1,JNK2,JNK3 = test: KiNativ cellular kinase profiling; assay type: cell-based; conditions: A375 cells, 1 μM, 3 hours; JNK1,JNK2,JNK3, labeling site Lys2
MARK3 = MARK3 (Homo sapiens, UniProt P27448); test: KiNativ cellular kinase profiling; assay type: cell-based; conditions: for inhibition at 1 µM: A-375, read-out: Percent inhibition of kinase labeling by ATP-biotin; for Percent inhibition of kinase labeling by ATP-biotin: A375 cells, 1 μM, 3 hours, MARK3, labeling site Lys1
PIP5K3 = PIP5K3 (Homo sapiens, UniProt Q9Y2I7); test: KiNativ cellular kinase profiling; assay type: cell-based; conditions: for inhibition at 1 µM: A-375, read-out: Percent inhibition of kinase labeling by ATP-biotin; for Percent inhibition of kinase labeling by ATP-biotin: A375 cells, 1 μM, 3 hours, PIP5K3, labeling site ATP
PKD2 = target: T1, PKD2 (Homo sapiens, UniProt Q9BZL6); test: KiNativ cellular kinase profiling; assay type: cell-based; conditions: for inhibition at 1 µM: A-375, read-out: Percent inhibition of kinase labeling by ATP-biotin; for Percent inhibition of kinase labeling by ATP-biotin: A375 cells, 1 μM, 3 hours, PKD2, labeling site Lys1
T1 sequence (Q9BZL6 1-878): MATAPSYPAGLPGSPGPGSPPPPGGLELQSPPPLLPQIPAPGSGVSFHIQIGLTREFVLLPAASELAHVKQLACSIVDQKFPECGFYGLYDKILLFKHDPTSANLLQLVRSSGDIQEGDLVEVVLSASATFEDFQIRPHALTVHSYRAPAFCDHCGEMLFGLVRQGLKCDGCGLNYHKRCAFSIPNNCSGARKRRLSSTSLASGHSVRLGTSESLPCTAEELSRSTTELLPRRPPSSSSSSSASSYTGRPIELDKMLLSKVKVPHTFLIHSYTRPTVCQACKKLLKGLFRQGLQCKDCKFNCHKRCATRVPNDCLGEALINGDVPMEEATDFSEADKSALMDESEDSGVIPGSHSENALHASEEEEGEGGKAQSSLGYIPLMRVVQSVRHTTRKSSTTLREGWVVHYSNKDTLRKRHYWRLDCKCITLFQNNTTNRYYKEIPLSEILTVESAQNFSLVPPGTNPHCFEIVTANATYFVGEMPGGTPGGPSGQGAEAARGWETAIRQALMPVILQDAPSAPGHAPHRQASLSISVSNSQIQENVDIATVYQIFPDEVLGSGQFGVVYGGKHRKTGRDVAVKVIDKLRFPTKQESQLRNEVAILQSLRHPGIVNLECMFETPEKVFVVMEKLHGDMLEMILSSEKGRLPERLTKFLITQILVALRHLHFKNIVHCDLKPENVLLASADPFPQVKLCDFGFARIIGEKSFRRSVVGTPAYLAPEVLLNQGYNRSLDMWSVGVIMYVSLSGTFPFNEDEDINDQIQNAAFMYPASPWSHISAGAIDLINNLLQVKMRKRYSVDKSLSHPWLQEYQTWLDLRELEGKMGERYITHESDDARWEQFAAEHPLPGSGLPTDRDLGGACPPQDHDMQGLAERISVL

[1] = test system: c-Jun phosphorylation (phospho Ser73) in A375 cells; assay type: cell-based
KIT(V559D) = KIT(V559D) (Homo sapiens, UniProt P10721, V559D); test: KinomeScan dissociation constant; assay type: binding
PFTAIRE1 = PFTAIRE1 (Homo sapiens, UniProt O94921); test: KiNativ cellular kinase profiling; assay type: cell-based; conditions: for inhibition at 1 µM: A-375, read-out: Percent inhibition of kinase labeling by ATP-biotin; for Percent inhibition of kinase labeling by ATP-biotin: A375 cells, 1 μM, 3 hours, PFTAIRE1, labeling site Lys1
MARK2 = MARK2 (Homo sapiens, UniProt Q7KZI7); test: KiNativ cellular kinase profiling; assay type: cell-based; conditions: for inhibition at 1 µM: A-375, read-out: Percent inhibition of kinase labeling by ATP-biotin; for Percent inhibition of kinase labeling by ATP-biotin: A375 cells, 1 μM, 3 hours, MARK2, labeling site Lys1
GSK3A = GSK3A (Homo sapiens, UniProt P49840); test: KiNativ cellular kinase profiling; assay type: cell-based; conditions: for inhibition at 1 µM: A-375, read-out: Percent inhibition of kinase labeling by ATP-biotin; for Percent inhibition of kinase labeling by ATP-biotin: A375 cells, 1 μM, 3 hours, GSK3A, labeling site Lys2
MARK2,MARK3 = test: KiNativ cellular kinase profiling; assay type: cell-based; conditions: A375 cells, 1 μM, 3 hours; MARK2,MARK3, labeling site Lys2
[2] = test system: c-Jun phosphorylation and Erk, p38, JNK, Akt, Stat, NF-κB and Rsk pathway nodes; test: microscopy-based cellular pathway profiling with phospho-specific antibodies; assay type: cell-based; conditions: phospho-specific antibody microscopy
CDK9 = CDK9 (Homo sapiens, UniProt P50750); test: KiNativ cellular kinase profiling; assay type: cell-based; conditions: for inhibition at 1 µM: A-375, read-out: Percent inhibition of kinase labeling by ATP-biotin; for Percent inhibition of kinase labeling by ATP-biotin: A375 cells, 1 μM, 3 hours, CDK9, labeling site Lys2
CK1a = CK1a (Homo sapiens, UniProt P48729); test: KiNativ cellular kinase profiling; assay type: cell-based; conditions: for inhibition at 1 µM: A-375, read-out: Percent inhibition of kinase labeling by ATP-biotin; for Percent inhibition of kinase labeling by ATP-biotin: A375 cells, 1 μM, 3 hours, CK1a, labeling site Lys2
IRAK1 = IRAK1 (Homo sapiens, UniProt P51617); test: KiNativ cellular kinase profiling; assay type: cell-based; conditions: for inhibition at 1 µM: A-375, read-out: Percent inhibition of kinase labeling by ATP-biotin; for Percent inhibition of kinase labeling by ATP-biotin: A375 cells, 1 μM, 3 hours, IRAK1, labeling site Lys2
MARK1 = MARK1 (Homo sapiens, UniProt Q9P0L2); test: KiNativ cellular kinase profiling; assay type: cell-based; conditions: for inhibition at 1 µM: A-375, read-out: Percent inhibition of kinase labeling by ATP-biotin; for Percent inhibition of kinase labeling by ATP-biotin: A375 cells, 1 μM, 3 hours, MARK1, labeling site Lys2
TAO1,TAO3 = test: KiNativ cellular kinase profiling; assay type: cell-based; conditions: A375 cells, 1 μM, 3 hours; TAO1,TAO3, labeling site Lys2
[3] = read-out: p-c-Jun EC50 (nM) A375, A375 cells, anisomycin stimulation, microscopy

Sequence of CK1a (P48729 whole entry): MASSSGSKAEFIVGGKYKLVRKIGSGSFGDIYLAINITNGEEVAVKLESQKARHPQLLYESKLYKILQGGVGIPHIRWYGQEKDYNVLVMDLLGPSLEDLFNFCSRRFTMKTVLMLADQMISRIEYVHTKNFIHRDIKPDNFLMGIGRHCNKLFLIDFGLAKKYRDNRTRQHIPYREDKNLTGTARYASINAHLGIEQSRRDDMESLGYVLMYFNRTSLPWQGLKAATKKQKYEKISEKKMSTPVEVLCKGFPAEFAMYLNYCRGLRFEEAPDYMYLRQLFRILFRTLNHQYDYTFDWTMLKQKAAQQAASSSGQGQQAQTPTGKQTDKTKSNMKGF
Sequence of KIT(V559D) (P10721 26-976 V559D): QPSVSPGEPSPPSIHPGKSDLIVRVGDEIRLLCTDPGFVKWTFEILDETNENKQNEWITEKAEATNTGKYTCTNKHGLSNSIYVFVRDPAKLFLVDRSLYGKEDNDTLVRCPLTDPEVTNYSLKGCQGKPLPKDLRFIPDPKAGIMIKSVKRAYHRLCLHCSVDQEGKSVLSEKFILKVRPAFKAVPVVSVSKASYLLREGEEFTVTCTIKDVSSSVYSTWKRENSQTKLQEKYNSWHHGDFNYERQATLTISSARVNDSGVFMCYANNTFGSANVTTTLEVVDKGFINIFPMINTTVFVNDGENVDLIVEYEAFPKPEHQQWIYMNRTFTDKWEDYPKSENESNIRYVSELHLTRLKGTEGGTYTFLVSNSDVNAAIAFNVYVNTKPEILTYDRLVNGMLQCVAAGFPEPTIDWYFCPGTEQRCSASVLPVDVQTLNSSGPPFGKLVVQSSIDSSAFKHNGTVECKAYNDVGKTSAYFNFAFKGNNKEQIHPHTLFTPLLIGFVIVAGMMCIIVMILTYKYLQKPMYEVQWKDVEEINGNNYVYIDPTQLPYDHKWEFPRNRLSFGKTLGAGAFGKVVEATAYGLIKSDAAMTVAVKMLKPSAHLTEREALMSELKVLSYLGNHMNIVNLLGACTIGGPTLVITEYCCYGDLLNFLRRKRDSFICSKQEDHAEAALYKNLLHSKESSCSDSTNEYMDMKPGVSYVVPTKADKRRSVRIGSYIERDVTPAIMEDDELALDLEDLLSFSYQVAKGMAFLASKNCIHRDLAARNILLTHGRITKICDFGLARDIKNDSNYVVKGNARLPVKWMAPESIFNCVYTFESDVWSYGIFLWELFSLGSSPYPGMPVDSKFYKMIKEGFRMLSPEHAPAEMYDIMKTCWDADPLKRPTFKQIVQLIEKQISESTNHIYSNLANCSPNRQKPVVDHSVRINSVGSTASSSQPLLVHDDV
Sequence of MARK3 (P27448 whole entry): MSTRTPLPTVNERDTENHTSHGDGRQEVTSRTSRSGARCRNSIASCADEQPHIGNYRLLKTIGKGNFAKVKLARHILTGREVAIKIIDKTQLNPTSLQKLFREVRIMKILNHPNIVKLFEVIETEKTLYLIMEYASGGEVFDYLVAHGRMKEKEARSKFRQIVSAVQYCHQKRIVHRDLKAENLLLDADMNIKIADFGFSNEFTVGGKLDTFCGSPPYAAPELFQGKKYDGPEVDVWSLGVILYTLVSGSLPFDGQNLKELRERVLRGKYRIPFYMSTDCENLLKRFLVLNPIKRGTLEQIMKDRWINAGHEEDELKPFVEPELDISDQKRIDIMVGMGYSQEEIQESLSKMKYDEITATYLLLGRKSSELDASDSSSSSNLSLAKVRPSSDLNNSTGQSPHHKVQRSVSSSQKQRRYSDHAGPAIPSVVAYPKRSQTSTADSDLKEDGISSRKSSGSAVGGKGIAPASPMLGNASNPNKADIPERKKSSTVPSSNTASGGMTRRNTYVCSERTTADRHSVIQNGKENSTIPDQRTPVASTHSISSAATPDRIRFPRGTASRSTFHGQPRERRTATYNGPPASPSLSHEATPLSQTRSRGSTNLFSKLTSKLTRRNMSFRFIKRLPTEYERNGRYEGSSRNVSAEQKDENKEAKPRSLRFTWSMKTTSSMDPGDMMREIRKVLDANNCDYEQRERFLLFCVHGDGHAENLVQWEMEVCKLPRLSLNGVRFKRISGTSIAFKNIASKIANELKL
Sequence of IRAK1 (P51617 whole entry, species assumed): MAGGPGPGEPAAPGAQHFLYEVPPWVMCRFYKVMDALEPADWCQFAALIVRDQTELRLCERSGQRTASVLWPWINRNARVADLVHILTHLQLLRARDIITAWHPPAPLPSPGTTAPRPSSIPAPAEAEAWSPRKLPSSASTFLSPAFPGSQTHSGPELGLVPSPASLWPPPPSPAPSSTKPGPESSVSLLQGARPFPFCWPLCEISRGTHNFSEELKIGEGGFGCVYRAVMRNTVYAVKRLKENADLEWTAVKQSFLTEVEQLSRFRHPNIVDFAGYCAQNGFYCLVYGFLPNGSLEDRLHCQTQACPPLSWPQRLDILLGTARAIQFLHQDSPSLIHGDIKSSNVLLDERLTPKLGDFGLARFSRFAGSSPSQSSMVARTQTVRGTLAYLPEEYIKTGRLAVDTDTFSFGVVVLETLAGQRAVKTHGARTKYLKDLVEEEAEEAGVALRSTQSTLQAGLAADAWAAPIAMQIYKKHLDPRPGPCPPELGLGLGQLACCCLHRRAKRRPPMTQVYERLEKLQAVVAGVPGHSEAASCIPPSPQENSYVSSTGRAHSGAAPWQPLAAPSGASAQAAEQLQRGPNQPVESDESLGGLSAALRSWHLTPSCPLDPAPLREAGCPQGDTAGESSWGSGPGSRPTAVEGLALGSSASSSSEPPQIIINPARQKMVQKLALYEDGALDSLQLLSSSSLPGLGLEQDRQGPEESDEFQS
Sequence of CDK9 (P50750 whole entry): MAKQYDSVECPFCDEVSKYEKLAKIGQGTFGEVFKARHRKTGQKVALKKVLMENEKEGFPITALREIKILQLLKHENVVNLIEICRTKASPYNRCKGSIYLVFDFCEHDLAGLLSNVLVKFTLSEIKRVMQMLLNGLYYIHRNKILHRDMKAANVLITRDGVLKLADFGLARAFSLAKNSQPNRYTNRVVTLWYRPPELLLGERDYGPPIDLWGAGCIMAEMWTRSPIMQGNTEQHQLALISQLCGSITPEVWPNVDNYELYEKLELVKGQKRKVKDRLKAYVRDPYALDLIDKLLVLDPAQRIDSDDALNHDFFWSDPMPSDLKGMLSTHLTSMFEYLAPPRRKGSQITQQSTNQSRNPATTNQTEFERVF
Sequence of CDK9 (O60563 whole entry partner): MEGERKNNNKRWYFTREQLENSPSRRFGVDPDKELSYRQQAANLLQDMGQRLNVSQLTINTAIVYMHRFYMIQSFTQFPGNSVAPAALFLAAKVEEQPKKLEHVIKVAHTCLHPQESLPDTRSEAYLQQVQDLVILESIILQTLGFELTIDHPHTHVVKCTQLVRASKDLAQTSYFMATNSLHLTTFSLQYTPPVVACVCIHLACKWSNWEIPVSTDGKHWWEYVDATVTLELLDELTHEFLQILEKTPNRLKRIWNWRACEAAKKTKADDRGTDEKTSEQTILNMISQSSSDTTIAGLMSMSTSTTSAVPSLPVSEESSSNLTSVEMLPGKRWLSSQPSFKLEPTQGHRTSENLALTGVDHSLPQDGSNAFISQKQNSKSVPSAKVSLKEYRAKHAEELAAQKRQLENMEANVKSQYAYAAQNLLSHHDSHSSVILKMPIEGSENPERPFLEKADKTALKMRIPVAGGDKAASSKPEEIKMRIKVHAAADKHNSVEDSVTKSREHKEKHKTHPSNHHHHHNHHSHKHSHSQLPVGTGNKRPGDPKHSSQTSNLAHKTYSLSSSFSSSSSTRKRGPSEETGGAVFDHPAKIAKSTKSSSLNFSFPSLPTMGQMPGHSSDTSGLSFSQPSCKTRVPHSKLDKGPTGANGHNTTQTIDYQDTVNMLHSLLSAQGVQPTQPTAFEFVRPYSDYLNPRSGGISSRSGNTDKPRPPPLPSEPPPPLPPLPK
Sequence of GSK3A (P49840 whole entry): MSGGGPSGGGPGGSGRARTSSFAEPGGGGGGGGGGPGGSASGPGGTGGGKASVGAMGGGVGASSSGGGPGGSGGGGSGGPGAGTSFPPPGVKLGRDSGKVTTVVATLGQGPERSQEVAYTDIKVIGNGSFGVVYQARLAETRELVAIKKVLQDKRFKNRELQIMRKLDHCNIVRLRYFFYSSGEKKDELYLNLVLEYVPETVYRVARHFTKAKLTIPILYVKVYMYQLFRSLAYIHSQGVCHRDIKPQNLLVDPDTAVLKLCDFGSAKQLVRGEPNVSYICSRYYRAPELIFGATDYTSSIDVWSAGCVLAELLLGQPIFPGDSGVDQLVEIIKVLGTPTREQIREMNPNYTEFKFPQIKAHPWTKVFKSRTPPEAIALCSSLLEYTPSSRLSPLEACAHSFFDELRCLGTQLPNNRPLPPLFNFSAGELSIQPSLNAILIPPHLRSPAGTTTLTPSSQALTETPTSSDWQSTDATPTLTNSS
Sequence of PFTAIRE1 (O94921 whole entry): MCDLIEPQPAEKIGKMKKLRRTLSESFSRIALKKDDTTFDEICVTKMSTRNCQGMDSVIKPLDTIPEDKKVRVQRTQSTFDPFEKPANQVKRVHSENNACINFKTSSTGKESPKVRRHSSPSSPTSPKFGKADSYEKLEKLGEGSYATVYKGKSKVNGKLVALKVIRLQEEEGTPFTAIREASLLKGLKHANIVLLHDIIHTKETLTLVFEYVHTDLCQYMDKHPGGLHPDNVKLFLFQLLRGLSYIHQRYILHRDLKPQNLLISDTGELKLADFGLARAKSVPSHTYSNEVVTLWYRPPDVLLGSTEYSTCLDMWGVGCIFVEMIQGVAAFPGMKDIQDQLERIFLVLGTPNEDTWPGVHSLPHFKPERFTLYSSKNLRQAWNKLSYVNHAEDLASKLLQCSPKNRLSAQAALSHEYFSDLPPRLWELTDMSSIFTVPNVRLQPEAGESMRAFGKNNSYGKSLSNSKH

Structure (SMILES)	inhibition at 1 µM (ROCK1) [%]	Percent inhibition of kinase labeling by ATP-biotin (ROCK1,ROCK2) [%]	Percent inhibition of kinase labeling by ATP-biotin (JNK1,JNK2,JNK3) [%]	inhibition at 1 µM (MARK3) [%]	inhibition at 1 µM (PIP5K3) [%]	inhibition at 1 µM (PKD2) [%]	Kd (KIT(V559D)) [nM]	inhibition at 1 µM (PFTAIRE1) [%]	inhibition at 1 µM (MARK2) [%]	inhibition at 1 µM (GSK3A) [%]	Percent inhibition of kinase labeling by ATP-biotin (MARK2,MARK3) [%]	on-/off-pathway activity in cellular pathway profiling [2]	inhibition at 1 µM (CDK9) [%]	inhibition at 1 µM (CK1a) [%]	inhibition at 1 µM (IRAK1) [%]	inhibition at 1 µM (MARK1) [%]	Percent inhibition of kinase labeling by ATP-biotin (TAO1,TAO3) [%]	Percent inhibition of kinase labeling by ATP-biotin (ROCK1) [%]	Percent inhibition of kinase labeling by ATP-biotin (MARK3) [%]	Percent inhibition of kinase labeling by ATP-biotin (PIP5K3) [%]	other results
Cc1cc(NC(=O)c2cccc(NC(=O)/C=C/CN(C)C)c2)ccc1Nc1nccc(-c2cccnc2)n1 [JNK-IN-8]	10	−17.1	98.7	-12	18.7	4.9	92	38.1	9.6	10.6	13.9	only on-pathway activity	-34.1	-13.6	0.8	8.9	2.9	–	–	–	EC50 ([1]; Homo sapiens, A-375, read-out: p-c-Jun EC50 (nM) A375): 338 nM
CN(C)C/C=C/C(=O)Nc1cccc(C(=O)Nc2ccc(Nc3nccc(-c4c(-c5ccccc5)nn5ccccc45)n3)cc2)c1 [JNK-IN-11]	-8.2	−33.9	99.8	-27.8	99.3	40.9	8.2	12.8	20.8	40.7	0.4	off-pathway activity	-23.4	61.1	5.4	18.6	34.1	–	–	–	–
CN(C)C/C=C/C(=O)Nc1cccc(C(=O)Nc2ccc(Nc3nccc(-c4cccnc4)n3)cc2)c1 [JNK-IN-7]	-11.9	−21.5	99.7	-13.5	91.8	13.6	48	75.3	23.6	20.4	26.5	only on-pathway activity	16.6	-20.2	81	7.9	13.1	–	–	–	–
CN(C)C/C=C/C(=O)Nc1cccc(C(=O)Nc2ccc(Nc3nccc(/C(C#N)=C4\Nc5ccccc5S4)n3)cc2)c1 [JNK-IN-12]	–	−91	98.6	–	–	–	–	–	–	–	−38.7	only on-pathway activity	–	–	–	–	−10.8	−97	−67.9	−11.4	Percent inhibition of kinase labeling by ATP-biotin (PKD2): −79%; EC50 [1, 3]: 134 nM; Percent inhibition of kinase labeling by ATP-biotin (PFTAIRE1): 25.7%; Percent inhibition of kinase labeling by ATP-biotin (MARK2): −41.1%; Percent inhibition of kinase labeling by ATP-biotin (GSK3A): −7.7%; Percent inhibition of kinase labeling by ATP-biotin (CDK9): −35.3%; Percent inhibition of kinase labeling by ATP-biotin (CK1a): −96%; Percent inhibition of kinase labeling by ATP-biotin (IRAK1): −14.9%; Percent inhibition of kinase labeling by ATP-biotin (MARK1): −43.5%
CCC(=O)Nc1cccc(C(=O)Nc2ccc(Nc3nccc(-c4cccnc4)n3)cc2)c1 [JNK-IN-6]	–	11.6	27.3	–	–	–	–	–	–	–	22.9	–	–	–	–	–	35.8	24.4	−7.3	16.8	Percent inhibition of kinase labeling by ATP-biotin (PKD2): 12%; EC50 [1, 3]: 1900 nM; Percent inhibition of kinase labeling by ATP-biotin (PFTAIRE1): −6%; Percent inhibition of kinase labeling by ATP-biotin (MARK2): 13.4%; Percent inhibition of kinase labeling by ATP-biotin (GSK3A): 6.8%; Percent inhibition of kinase labeling by ATP-biotin (CDK9): 7.6%; Percent inhibition of kinase labeling by ATP-biotin (CK1a): 19.5%; Percent inhibition of kinase labeling by ATP-biotin (IRAK1): −4.6%; Percent inhibition of kinase labeling by ATP-biotin (MARK1): 23.9%
